According to PubChem BioAssay AID256 (DTP/NCI, 2004):
Values joined by “and” are separate entries in the source; they are usually repeats but may differ in a detail not shown here. Equal values may be shown once. Toxic doses and inconclusive results are not listed.

System: CD2F1 mice, L1210 leukemia ip, survival T/C
Assay: NCI In Vivo Anticancer Drug Screen. Data for tumor model L1210 Leukemia (intraperitoneal) in CD2F1 (CDF1) mice
Conditions: higher = longer survival
Summary of the method: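 Compound-dosed mice with transplantable tumor versus matched vehicle controls; endpoint ratio T/C reported.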

[1] = endpoint: mean survival time, dose: 100.0 mg/kg/injection, schedule: Q04DX003 (ip), vehicle: saline
[2] = endpoint: mean survival time, dose: 200.0 mg/kg/injection, schedule: Q04DX003 (ip), vehicle: saline
[3] = endpoint: mean survival time, dose: 50.0 mg/kg/injection, schedule: Q01DX009 (ip), vehicle: saline with Tween-80
[4] = endpoint: mean survival time, dose: 100.0 mg/kg/injection, schedule: Q01DX009 (ip), vehicle: saline with Tween-80
[5] = endpoint: mean survival time, dose: 100.0 mg/kg/injection, schedule: Q04DX003 (ip), vehicle: saline with Tween-80
[6] = endpoint: mean survival time, dose: 200.0 mg/kg/injection, schedule: Q01DX009 (ip), vehicle: saline with Tween-80
[7] = endpoint: mean survival time, dose: 200.0 mg/kg/injection, schedule: Q04DX003 (ip), vehicle: saline with Tween-80
[8] = endpoint: mean survival time, dose: 400.0 mg/kg/injection, schedule: Q01DX009 (ip), vehicle: saline with Tween-80
[9] = endpoint: mean survival time, dose: 400.0 mg/kg/injection, schedule: Q04DX003 (ip), vehicle: saline with Tween-80
[10] = endpoint: mean survival time, dose: 5.0 mg/kg/injection, schedule: Q01DX009 (ip), vehicle: saline with Tween-80
[11] = endpoint: mean survival time, dose: 10.0 mg/kg/injection, schedule: Q01DX009 (ip), vehicle: saline with Tween-80
[12] = endpoint: mean survival time, dose: 20.0 mg/kg/injection, schedule: Q01DX009 (ip), vehicle: saline with Tween-80
[13] = endpoint: median survival time, dose: 50.0 mg/kg/injection, schedule: Q04DX003 (ip), vehicle: saline with Tween-80
[14] = endpoint: median survival time, dose: 100.0 mg/kg/injection, schedule: Q04DX003 (ip), vehicle: saline with Tween-80

NC(CSS(=O)(=O)O)=NCCSS(=O)(=O)O
T/C [1]: 97 % of control
T/C [2]: 97 % of control

CC(C)(C)NC(=O)CCC(CC(=O)NC(C)(C)C)OCc1ccccc1 (configuration not stated)
T/C [3]: 100 % of control
T/C [4]: 104 % of control
T/C [5]: 101 % of control
T/C [6]: 102 % of control
T/C [7]: 106 % of control
T/C [8]: 93 % of control
T/C [9]: 93 % of control

O=C1OC(=O)C2C3CCC(O3)C12 (configuration not stated)
T/C (endpoint: mean survival time, dose: 1.56 mg/kg/injection, schedule: Q01DX009 (ip), vehicle: saline): 98 % of control
T/C (endpoint: mean survival time, dose: 3.12 mg/kg/injection, schedule: Q01DX009 (ip), vehicle: saline): 101 % of control
T/C [10]: 103 % of control
T/C [11]: 100 % of control
T/C [12]: 98 % of control

CC1(C)CC(O)CC(C)(C)N1O
T/C [3]: 102 % of control
T/C [4]: 103 % of control
T/C [1]: 97 % of control
T/C [6]: 96 % of control
T/C [2]: 94 % of control
T/C (endpoint: mean survival time, dose: 400.0 mg/kg/injection, schedule: Q04DX003 (ip), vehicle: saline): 97 % of control

CC(=O)OC1C(CNC(=O)Oc2ccccc2)OC(n2cnc3c(=O)[nH]c(N)nc32)C1OC(C)=O (configuration not stated)
T/C (endpoint: mean survival time, dose: 100.0 mg/kg/injection, schedule: Q01DX001 (ip), vehicle: Klucel (hydroxypropylcellulose) (HPC)): 88 % of control
T/C (endpoint: mean survival time, dose: 200.0 mg/kg/injection, schedule: Q01DX001 (ip), vehicle: Klucel (hydroxypropylcellulose) (HPC)): 94 % of control
T/C (endpoint: mean survival time, dose: 400.0 mg/kg/injection, schedule: Q01DX001 (ip), vehicle: Klucel (hydroxypropylcellulose) (HPC)): 91 % of control

CC(=O)OC1COC(n2c(O)c(N=NC(N)=S)c3cc([N+](=O)[O-])ccc32)C(OC(C)=O)C1OC(C)=O (configuration not stated)
T/C (endpoint: mean survival time, dose: 12.5 mg/kg/injection, schedule: Q01DX005 (ip), vehicle: other): 96 % of control
T/C (endpoint: mean survival time, dose: 25.0 mg/kg/injection, schedule: Q01DX005 (ip), vehicle: other): 96 % of control
T/C (endpoint: mean survival time, dose: 50.0 mg/kg/injection, schedule: Q01DX005 (ip), vehicle: other): 92 % of control
T/C (endpoint: mean survival time, dose: 100.0 mg/kg/injection, schedule: Q01DX005 (ip), vehicle: other): 88 % of control

CCC1(O)C(=O)OCc2c1cc1n(c2=O)Cc2cc3ccc(O)cc3nc2-1 (configuration not stated)
T/C (endpoint: median survival time, dose: 3.75 mg/kg/injection, schedule: Q04DX002 (ip), vehicle: Klucel (hydroxypropylcellulose) (HPC)): 121 % of control
T/C (endpoint: median survival time, dose: 7.5 mg/kg/injection, schedule: Q04DX002 (ip), vehicle: Klucel (hydroxypropylcellulose) (HPC)): 272 % of control
T/C (endpoint: median survival time, dose: 15.0 mg/kg/injection, schedule: Q04DX002 (ip), vehicle: Klucel (hydroxypropylcellulose) (HPC)): 190 % of control
T/C (endpoint: median survival time, dose: 30.0 mg/kg/injection, schedule: Q04DX002 (ip), vehicle: Klucel (hydroxypropylcellulose) (HPC)): 152 % of control
T/C (endpoint: median survival time, dose: 60.0 mg/kg/injection, schedule: Q04DX002 (ip), vehicle: Klucel (hydroxypropylcellulose) (HPC)): 154 % of control and 357 % of control

CCOC(=O)C(Cc1ccccc1OC)P(=O)(OCC)OCC (configuration not stated)
T/C (endpoint: mean survival time, dose: 75.0 mg/kg/injection, schedule: Q01DX001 (ip), vehicle: saline): 100 % of control
T/C (endpoint: mean survival time, dose: 150.0 mg/kg/injection, schedule: Q01DX001 (ip), vehicle: saline): 94 % of control
T/C (endpoint: mean survival time, dose: 300.0 mg/kg/injection, schedule: Q01DX001 (ip), vehicle: saline): 96 % of control

O=c1cccc(Cl)[nH]1
T/C [4]: 102 % of control
T/C [5]: 98 % of control
T/C [6]: 102 % of control
T/C [7]: 102 % of control
T/C [8]: 90 % of control
T/C [9]: 98 % of control

S=C1SCCN1Cc1ccccc1
T/C [4]: 104 % of control
T/C [5]: 106 % of control
T/C [6]: 101 % of control
T/C [7]: 101 % of control
T/C [8]: 104 % of control
T/C [9]: 101 % of control

CSc1ncnc2nn(C3OC(CO)C(O)C3O)cc12 (configuration not stated)
T/C (endpoint: mean survival time, dose: 12.5 mg/kg/injection, schedule: Q01DX005 (ip), vehicle: water): 103 % of control
T/C (endpoint: mean survival time, dose: 25.0 mg/kg/injection, schedule: Q01DX005 (ip), vehicle: water): 96 % of control
T/C (endpoint: mean survival time, dose: 50.0 mg/kg/injection, schedule: Q01DX005 (ip), vehicle: water): 103 % of control
T/C (endpoint: mean survival time, dose: 100.0 mg/kg/injection, schedule: Q01DX005 (ip), vehicle: water): 107 % of control
T/C (endpoint: mean survival time, dose: 200.0 mg/kg/injection, schedule: Q01DX005 (ip), vehicle: water): 100 % of control

COc1ccc(C(O)c2ccccn2)cc1 (configuration not stated)
T/C [4]: 103 % of control
T/C [6]: 97 % of control
T/C [8]: 90 % of control

CC(CNC(=O)C12CC3CC(CC(C3)C1)C2)NC(=O)C12CC3CC(CC(C3)C1)C2 (configuration not stated)
T/C (endpoint: median survival time, dose: 12.5 mg/kg/injection, schedule: Q01DX005 (ip), vehicle: DMSO): 101 % of control
T/C (endpoint: median survival time, dose: 25.0 mg/kg/injection, schedule: Q01DX005 (ip), vehicle: DMSO): 104 % of control
T/C (endpoint: median survival time, dose: 50.0 mg/kg/injection, schedule: Q01DX005 (ip), vehicle: DMSO): 101 % of control
T/C (endpoint: median survival time, dose: 100.0 mg/kg/injection, schedule: Q01DX005 (ip), vehicle: DMSO): 98 % of control
T/C (endpoint: median survival time, dose: 200.0 mg/kg/injection, schedule: Q01DX005 (ip), vehicle: DMSO): 101 % of control

CCC1=[N+](C)c2ccccc2C1(C)C
T/C [1]: 104 % of control

CCOC(=O)/N=C/N(C)C
T/C (endpoint: mean survival time, dose: 100.0 mg/kg/injection, schedule: Q01DX001 (ip), vehicle: saline): 100 % of control
T/C (endpoint: mean survival time, dose: 200.0 mg/kg/injection, schedule: Q01DX001 (ip), vehicle: saline): 109 % of control
T/C (endpoint: mean survival time, dose: 400.0 mg/kg/injection, schedule: Q01DX001 (ip), vehicle: saline): 103 % of control
T/C (endpoint: median survival time, dose: 25.0 mg/kg/injection, schedule: Q04DX003 (ip), vehicle: saline with Tween-80): 100 % of control
T/C [13]: 100 % of control
T/C [14]: 100 % of control

[C-]#[O+].[C-]#[O+].[C-]#[O+].[C-]#[O+].[C-]#[O+].[C-]#[O+].[W]
T/C [5]: 95 % of control
T/C [7]: 97 % of control
T/C [9]: 101 % of control

O=C(NCCCl)Nc1ccc(O)cc1
T/C (endpoint: mean survival time, dose: 100.0 mg/kg/injection, schedule: Q01DX001 (ip), vehicle: carboxymethylcellulose (CMC)): 101 % of control
T/C (endpoint: mean survival time, dose: 200.0 mg/kg/injection, schedule: Q01DX001 (ip), vehicle: carboxymethylcellulose (CMC)): 98 % of control
T/C (endpoint: mean survival time, dose: 400.0 mg/kg/injection, schedule: Q01DX001 (ip), vehicle: carboxymethylcellulose (CMC)): 104 % of control

CC(C)=CCC/C(C)=C\COC(=N)C(Cl)(Cl)Cl
T/C [3]: 88 % of control
T/C [4]: 92 % of control
T/C [6]: 92 % of control

OCCNCc1ccc(OCc2ccccc2)c(OCc2ccccc2)c1
T/C [13]: 90 % of control
T/C [14]: 90 % of control

N#CCS(=O)(=O)c1cccc[n+]1[O-]
T/C (endpoint: median survival time, dose: 25.0 mg/kg/injection, schedule: Q01DX009 (ip), vehicle: saline with Tween-80): 97 % of control
T/C (endpoint: median survival time, dose: 50.0 mg/kg/injection, schedule: Q01DX009 (ip), vehicle: saline with Tween-80): 98 % of control
T/C (endpoint: median survival time, dose: 100.0 mg/kg/injection, schedule: Q01DX009 (ip), vehicle: saline with Tween-80): 98 % of control
T/C (endpoint: median survival time, dose: 200.0 mg/kg/injection, schedule: Q01DX009 (ip), vehicle: saline with Tween-80): 107 % of control
T/C (endpoint: median survival time, dose: 400.0 mg/kg/injection, schedule: Q01DX009 (ip), vehicle: saline with Tween-80): 116 % of control

COC1=C(N=[N+]=[N-])C(=O)C(OC)=C(N=[N+]=[N-])C1=O
T/C [10]: 101 % of control
T/C (endpoint: mean survival time, dose: 5.0 mg/kg/injection, schedule: Q04DX003 (ip), vehicle: saline with Tween-80): 93 % of control
T/C [11]: 94 % of control
T/C (endpoint: mean survival time, dose: 10.0 mg/kg/injection, schedule: Q04DX003 (ip), vehicle: saline with Tween-80): 95 % of control
T/C [12]: 94 % of control
T/C (endpoint: mean survival time, dose: 20.0 mg/kg/injection, schedule: Q04DX003 (ip), vehicle: saline with Tween-80): 95 % of control

CCC[CH2][Sn]([CH2]CC)([CH2]CCC)[O]C(=O)c1ccccc1
T/C (endpoint: mean survival time, dose: 0.78 mg/kg/injection, schedule: Q01DX009 (ip), vehicle: saline with Tween-80): 104 % of control
T/C (endpoint: mean survival time, dose: 1.56 mg/kg/injection, schedule: Q01DX009 (ip), vehicle: saline with Tween-80): 107 % of control

CN(C)C(=O)SCCSC(=O)N(C)C
T/C (endpoint: mean survival time, dose: 100.0 mg/kg/injection, schedule: Q04DX002 (ip), vehicle: saline with Tween-80): 106 % of control
T/C (endpoint: mean survival time, dose: 200.0 mg/kg/injection, schedule: Q04DX002 (ip), vehicle: saline with Tween-80): 92 % of control
T/C (endpoint: mean survival time, dose: 400.0 mg/kg/injection, schedule: Q04DX002 (ip), vehicle: saline with Tween-80): 95 % of control

CC(C)C(O)C(C)N (configuration not stated)
T/C (endpoint: mean survival time, dose: 25.0 mg/kg/injection, schedule: Q01DX009 (ip), vehicle: saline with Tween-80): 113 % of control
T/C [3]: 95 % of control
T/C [4]: 93 % of control
